# What was measured:
# [1] = Solubility on stock solution preparation; conditions: weighable concentrations, stock solution in methanol / NaOH
# Procedure: Because of the high water content of oranges, no density adjustment was made. Compounds were prepared assuming 100 g was 100 mL in volume. All compounds except hesperidin and luteolin were weighed (10× to 1000× of Table 1 concentration to facilitate weighing) and dissolved in methanol. […] The phenolic stock solutions were stored in 1 mL aliquots at −20.C. Phenolics were brought to RT, vortexed, and diluted in 7:3 (v:v) acetone:water to match the fruit concentrations in Table 1. To fit the Trolox standard curve (see below for assay description), compounds were further diluted in 7:3 (v:v) acetone:water to the following molar concentrations prior to transfer to the 96-well plate: chlorogenic acid, 10.7 μM; hesperidin, 10.2 μM; luteolin, 2.45 μM; myricetin, 0.786 μM; naringenin, 2.61 μM; pcoumaric acid, 1.95 μM; and quercetin, 6.62 μM. Solubility was checked after thawing and dilution. All work involving phenolic compounds, fluorescein, and Trolox was performed in dark conditions to minimize degradation.
# It was assumed that 1 g fruit puree was 1 ml in volume for sample preparation, as a density adjustment would not change relative concentrations that would be tested. All compounds except ellagic acid were weighed then dissolved in methanol. […] The phenolic stock solutions were stored in 1 mL aliquots at −20° C. […]
# [2] = published values (Jorgensen & Skibsted 1998; Foley et al. 1999); cited from earlier work
# [3] = marketed products and foods listed for comparison; cited from earlier work
# [4] = marketed products and foods listed for comparison; cited from earlier work; remark: listed apart in the source
# [5] = ORAC assay, phenolic compounds found in strawberries; type: biochemical; conditions: strawberry combinations and individual antioxidants; values per gram
# Text: FIG. 5 provides the structures. […] Solubility was checked after thawing and dilution. […] All possible combinations of two compounds were mixed on an equal volume basis after being prepared at the concentrations found in Table 4 to ensure relative concentrations were maintained. Mixtures were then further diluted to match the lowest individual compound molarity to fit the Trolox standard curve. […] The same pattern was repeated for combinations of four: the top three synergistic combinations of three were combined with all possible fourth compounds. No statistically significant increases in antioxidant capacity were found for combinations of four. […] Combinations were prepared on the same day of their ORAC assay. ORAC assays were carried out according to Dávalos et al. […] Parameters of the assay were as follows: reader temperature: 37 degrees C., cycle number, 120; cycle time, 60 seconds; shaking mode, 3 seconds of orbital shaking before each cycle. A fluorescence filter with an excitation wavelength of 485/20 nm and an emission wavelength of 520/20 nm was used. Samples were prepared in 96-well plates in a mirror fashion, based on a planned layout. Each mirrored duplicate was averaged and counted as one data point. All samples were measured in quadruplicate (eight wells total) to obtain necessary statistical power. […] The data were analyzed using a Microsoft Excel 2007 (Microsoft, Redmond, Wash., USA) spreadsheet to determine area under the curve and to convert the data to Trolox equivalents based on the Trolox standard curve. […] Likewise, for combinations of three and four, the difference was calculated by subtracting the average of the individual three or four compounds from the combination. […] Difference=(combination abc)−(combination ab+individual c) (7) Difference=(combination abcd)−(combination abc+d) (8)
Compound,one-electron reduction potential [2] [V],ORAC Value (µmol Trolox equivalents/g) [5] [µmol Trolox equivalents/g],other results
COc1ccc([C@@H]2CC(=O)c3c(O)cc(O[C@@H]4O[C@H](CO[C@@H]5O[C@@H](C)[C@H](O)[C@@H](O)[C@H]5O)[C@@H](O)[C@H](O)[C@H]4O)cc3O2)cc1O [hesperidin],–,–,solubility [1]: only fully soluble at weighable concentrations in a basic solution
O=c1c(O)c(-c2ccc(O)c(O)c2)oc2cc(O)cc(O)c12 [quercetin],0.29,–,–
"O=C1O[C@H]([C@@H](O)CO)C(O)=C1O [ascorbic acid (vitamin C), ascorbic acid]",–,–,"ORAC Value (μmol Trolox Equivalents/g of mixture) [3]: 2,000 μmol Trolox Equivalents/g of mixture; ORAC Value [4]: 2,000 mol Trolox Equivalents/g of mixture"
O=c1oc2c(O)c(O)cc3c(=O)oc4c(O)c(O)cc1c4c23 [ellagic acid],–,7820,–
O=c1c(O)c(-c2ccc(O)cc2)oc2cc(O)cc(O)c12 [kaempferol],0.39,–,–
O=C(O)/C=C/c1ccc(O)cc1 [p-coumaric acid],0.59,20500,–
O=c1c(O[C@@H]2O[C@H](CO)[C@@H](O)[C@H](O)[C@H]2O)c(-c2ccc(O)c(O)c2)oc2cc(O)cc(O)c12 [quercetin-3-glucoside],–,20300,–

# Reference: patent publication US20110136245A1, “SYNERGISTIC INTERACTIONS OF PHENOLIC COMPOUNDS FOUND IN FOOD” (priority 2009, published 2011)
